Data on 1 molecule can be found in patent publication US12465582B2, “(S)-2-amino-6-((3-aminopropyl)amino)hexanoic acid (APL) for use in the treatment of non-alcoholic steatohepatitis (NASH), liver inflammation, hepatocellular ballooning, liver fibrosis and steatosis” (Temple University—Of The Commonwealth System Of Higher …, priority 2020, dated 2025).

In assay [1] the test system is Zucker fa/fa obese rats. In words: Glucose tolerance test (GTT) in Zucker rat model of NASH. The class given is in vivo. To be noted: 100 mg/kg APL p.o. b.i.d., 78 days, **p<0.01. The source says:
Zucker fa/fa obese rats and Zucker Fa/fa lean rats (7-week old male animals obtained from Charles Rivers Laboratories, Wilmington, MA, USA) were maintained in individual cages (1 rat per cage to encourage sedentary activity) and had free access to standard rodent chow (Cat #5053, obtained from Labdiet, Saint Louis, MO) and water (filtered and packed using a Hydrapak system) for 7 days until the start of the experiment. Zucker fa/fa obese rats were randomly assigned to two groups: 1) vehicle p.o.b.i.d. (oral administration, twice a day) for 78 days (n=7); and 2) 100 milligram per kilogram (mg/kg) body weight APL (p.o.b.i.d.) for 78 days (n=8). Zucker Fa/fa lean rats (n=4) were administered vehicle (p.o.b.i.d.) for 78 days. Phosphate-buffered saline (PBS), which is the solution used to dissolve APL, was used as vehicle solution. APL powder was dissolved under sterile conditions with PBS at a concentration of 100 mg/mL; volumes were adjusted for each animal accordingly to their body weight. […]
At the conclusion of the experimental time period (78 days for rats and 130 days for mice), the animals were subjected to a glucose tolerance test (GTT) as follows. […] Glucose levels were measured at 0, 15, 30, 45, 60, and 120 minutes after glucose administration. Glucose was measured using the AlphaTRAK 2 glucometer from Abbott

The test system of assay [2] is C57BL/6J mice fed high fat/high fructose diet (HFD). In words: NAFLD Activity Score (NAS) in HFD DIO mouse model of NASH. The class given is in vivo. To be noted: 130 days. The procedure:
C57BL/6J mice were maintained in cages (5 mice per cage) and had free access to standard rodent chow (Cat #5053, obtained from Labdiet, Saint Louis, MO) and water (filtered and packed using a Hydrapak system) for 5 days until the start of the experiment. The animals were then randomly assigned to three groups (n=5 for each group receiving different diets and treatments as shown in Table B for 130 days. Each treatment was administered p.o.b.i.d. The APL dosage was 200 mg/kg body weight. “HFD” is high fat/high fructose diet, as described in Example 1 “Chow” refers to standard rodent chow, as described in Example 1. Animals were fed ad libitum.
At the conclusion of the test period, the animals were humanely euthanized, and the livers were removed for histological analysis. Liver samples in formalin were allowed to fix for 48 hours, and processed into FFPE blocks after fixations. Slides were stained with hematoxylin and eosin (H&E). FIG. 6A is the representation of multiple images of hematoxylin & eosin (H&E) staining of liver sections.
The liver samples were evaluated for liver fat (steatosis), inflammation, and hypertrophy in accordance the NAS scoring system. The NAS scoring is depicted in FIG. 6B. The NAS score for mice in the HFD/vehicle-treated mice is increased in all the pathological parameters, when compared with the CHOW/vehicle-treated mice: macrovesicular steatosis, microvesicular steatosis, hepatic hypertrophy and inflammatory foci. […] Thus, APL attenuates hepatic steatosis, inflammation and hypertrophy in the liver, each pathognomic of liver damage and NASH.

Assay [3] has as its system 4-hydroxynonenal (4-HNE) in liver of C57BL/6J mice fed HFD. In words: Hepatic 4-HNE immunofluorescence (protein carbonyls) in DIO mouse NASH model. The class given is in vivo. As to conditions: 130 days. The procedure: Liver samples from C57BL/6J mice fed chow and treated with vehicle, C57BL/6J mice fed HFD and treated with vehicle, and C57BL/6J mice fed HFD and treated with APL, as described in Example 1, were prepared and stained with an anti-4HNE antibody from Abcam (catalog #ab46545) for immunofluorescent analysis of the presence of 4-HNE. The APL dosage, administration frequency, and duration of treatment were as described in Example 1 (APL dosage administered to each animal was 200 milligrams per kilogram of body weight divided in two dosages per day, via oral gavage; treatment duration of 130 days; animals fed ad libitum). The data are depicted in FIG. 10. FIG. 10A are representative images of 4-HNE immunofluorescence liver sections from C57BL/6J mice fed chow and treated with vehicle, C57BL/6J mice fed HFD and treated with either vehicle or APL (TB-019) at 20× or 63× magnification. FIG. 10B is a plot of the 4-HNE immunofluorescence intensity per tissue area.

Assay [4] deals with C57BL/6J mice fed AMLN diet changed to HFD. In words: NAS and liver fibrosis in AMLN diet mouse model of NASH. The class given is in vivo. To be noted: APL p.o. b.i.d., 16 weeks. How it is done:
FIG. 12, comprising FIGS. 12A and 12B, depicts data regarding NAS and fibrosis in an AMLN diet mouse model of NASH. C57BL/6J mice were fed either CHOW or a modified AMLN diet that was changed to HFD after twenty (20) weeks. At seek fifty (50) mice were treated with vehicle or APL (p.o.b.i.d.). The APL dosage 25, 50, or 100 mg/kg, oral administration (p.o.) in two dosages per day (b.i.d.) (total dosage of 50, 100, or 200 mg/kg/day). After sixteen (16) weeks of treatment with vehicle or APL biopsies were collected and stained with hematoxylin & eosin (H&E) and evaluated for steatosis, inflammation, and hepatocyte ballooning. FIG. 12A depicts the reduction in NAS the treated group as compared to the positive control. […] FIG. 12B depicts the reduction in liver fibrosis in the treated group as compared to the positive control.
C57BL/6 mice were maintained in cages and had free access to standard rodent chow (Cat #5053, obtained from Labdiet, Saint Louis, MO) and water. C57BL/6J mice were fed either CHOW (negative control) or amylin liver NASH (AMLN) diet (58% high fat, 25% carbohydrate, 2% cholesterol) for twenty (20) weeks. Beginning at twenty (20) weeks, animals fed AMLN diet were changed to HFD. At fifty (50) weeks, animals were treated twice daily (b.i.d.) with oral administration (p.o.) of either vehicle (positive control) or APL (treated).

The conditions of assay [5]: See WO 2018/049019 and US 2019/0192462; cited from earlier work.

SMILES strings stand for the structures.

Take `NCCCNCCCC[C@H](N)C(=O)O` [APL, (S)-2-amino-6-((3-aminopropyl)amino)hexanoic acid]: the “AUC of GTT, obese rats treated with APL vs obese rats treated with vehicle” value in assay [1] was “significantly lower”. Also, the “NAS parameters: macrovesicular steatosis, microvesicular steatosis, hepatic hypertrophy, inflammatory foci (FIG. 6B)” value in assay [2] (APL 200 mg/kg p.o. b.i.d., vs HFD vehicle, ***p<0.001) was “statistically significant amelioration”. For the same molecule, the “lobular inflammation score, treated group vs negative control (FIG. 7B)” value in assay [2] (APL 200 mg/kg, ****p<0.0001) is given as “significant statistical difference”. In addition, the “NAS component scores: steatosis, lobular inflammation, hepatic ballooning (FIG. 7B), treated vs positive control” value in assay [2] (APL 200 mg/kg/day divided into 2 doses, ****p<0.0001) is given as “significantly reduces”. In addition, the “protein carbonyls in liver (4-HNE immunofluorescence intensity per tissue area), treated vs HFD vehicle” value in assay [3] (APL 200 mg/kg/day in two doses, oral gavage, ***p<0.001) was “reduced”. In assay [3] (APL 200 mg/kg/day), the “4-HNE immunofluorescence intensity per tissue area, treated vs negative control (chow vehicle)” value is “No statistical difference”. Further, the “liver fibrosis vs positive control (FIG. 12B)” value in assay [4] (****p<0.0001) was “significant reduction”. For the same molecule, the “NAS vs positive control (FIG. 12A)” value in assay [4] (***p<0.001) is on record as “significant reduction”. The “affinity for 4-HNE” value in assay [5] is on record as “high affinity”.
